Test results from patent US12049445B2, “Compounds having S1P5 receptor agonistic activity” (ONO PHARMACEUTICAL CO., LTD., priority 2018, dated 2024).
Where a name gives a salt, the structure may show the parent alone.

Assays:
human S1P1 (EDG-1) [1] = target: T1, human S1P1 (EDG-1) (Homo sapiens, UniProt P21453); test: S1P receptor agonist activity by monitoring intracellular calcium concentration (S1P1); type: cell-based; settings: for EC50: CHO cells overexpressing human S1P1 (EDG-1) gene, intracellular calcium increase, S1P signal = 100% activity
T1 sequence (P21453 whole entry): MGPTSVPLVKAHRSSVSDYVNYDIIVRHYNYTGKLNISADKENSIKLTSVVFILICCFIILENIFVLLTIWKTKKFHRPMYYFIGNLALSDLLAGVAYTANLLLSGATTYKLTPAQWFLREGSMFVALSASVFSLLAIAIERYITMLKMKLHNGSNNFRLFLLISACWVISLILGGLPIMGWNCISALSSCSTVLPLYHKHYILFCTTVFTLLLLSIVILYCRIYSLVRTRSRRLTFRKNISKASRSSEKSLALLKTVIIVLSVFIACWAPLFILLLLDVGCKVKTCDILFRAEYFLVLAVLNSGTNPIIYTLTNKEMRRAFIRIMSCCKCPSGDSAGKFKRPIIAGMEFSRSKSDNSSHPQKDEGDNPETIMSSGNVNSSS
Experimental: (§1) Chinese hamster ovary (CHO) cells in which each of a human S1P1 (EDG-1) gene or a human S1P5 (EDG-8) gene was overexpressed were cultured in Ham's F-12 medium containing 10% FBS (fetal bovine serum), penicillin/streptomycin, and geneticin (0.25 mg/mL). The culture medium was replaced one day before performing a calcium assay and on the day of the assay. Four hours after the culture medium replacement, the culture medium was removed, and washing was performed once with phosphate-buffered saline. After the cells were detached by adding 0.05% trypsin EDTA, the cells were recovered by adding a culture medium. The recovered cell suspension was centrifuged to remove the supernatant, and the cells were suspended in phosphate-buffered saline, and the cell number was counted. The cells were suspended in a Hanks solution containing Calcium 6 Assay Reagent (manufactured by Molecular Devices, LLC), 20 mM HEPES, and 2.5 mM probenecid at a cell density of 1.1×10^6 cells/mL, and the suspension was incubated at 37° C. for about 1 hour. Thereafter, the supernatant was removed by centrifugation, and the cells were suspended in a Hanks solution containing 20 mM HEPES, 2.5 mM probenecid, and 0.1% BSA at a cell density of 2.2×10^6 cells/mL. The suspension was inoculated in a 96-well plate at 80 μL/well. The plate was set on a fluorescent drug screening system (FDSS 6000), and the compound and S1P were sequentially added thereto, and an increase in intracellular calcium concentration between before and after the addition was measured at an excitation wavelength of 480 nm and a fluorescence wavelength of 540 nm. The increase in intracellular calcium concentration was evaluated by the signal intensity at the fluorescence wavelength, and the agonist activity of each compound was calculated by assuming the signal intensity when S1P was added instead of the compound to be 100% activity.

human S1P5 (EDG-8) = human S1P5 (EDG-8) (Homo sapiens, UniProt Q9H228); test: S1P receptor agonist activity by monitoring intracellular calcium concentration (S1P5); type: cell-based; settings: for EC50: CHO cells overexpressing human S1P5 (EDG-8) gene, intracellular calcium increase, S1P signal = 100% activity; for balance of S1P5 receptor agonist activity against S1P1 receptor agonist activity (in words): comparison of calcium assay agonist activities at S1P1 and S1P5
Sequence of human S1P5 (EDG-8) (Q9H228 whole entry): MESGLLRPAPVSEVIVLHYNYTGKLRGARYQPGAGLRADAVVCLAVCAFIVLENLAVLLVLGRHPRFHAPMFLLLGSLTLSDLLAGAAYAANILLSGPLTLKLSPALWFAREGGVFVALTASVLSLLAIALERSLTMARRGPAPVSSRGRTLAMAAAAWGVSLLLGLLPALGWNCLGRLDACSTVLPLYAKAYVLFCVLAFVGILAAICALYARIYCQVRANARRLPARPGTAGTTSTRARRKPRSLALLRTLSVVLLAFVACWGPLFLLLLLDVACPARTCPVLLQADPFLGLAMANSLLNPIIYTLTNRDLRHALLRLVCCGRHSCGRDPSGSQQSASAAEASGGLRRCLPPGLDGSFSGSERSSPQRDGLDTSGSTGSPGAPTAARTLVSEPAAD
Experimental: as §1

human S1P1 (EDG-1) [2] = target: T1, human S1P1 (EDG-1); test: Inhibition of binding of [33P]-S1P to S1P1, CHO membrane fraction; settings: membrane fraction of CHO cells overexpressing human S1P1; room temperature 60 minutes; read-out: inhibitory activity (IC50 value) for binding of [33P]-S1P to S1P1
Experimental: (§2) A reaction was carried out in a 96-well microplate by using a membrane fraction of Chinese hamster ovary (CHO) cells each of which was made to overexpress human S1P1 (EDG-1) gene or human S1P5 gene respectively, in an amount of the membrane fraction of 60 μg protein/mL. To each of the well, 100 μL of a vehicle (DMSO) solution or a compound solution at a two-fold concentration each diluted with Binding Buffer (50 mmol/L Tris pH 7.5, 5 mmol/L MgCl2, 0.5% BSA, Complete EDTA free (1 tablet/50 mL)) and 50 μL of 0.16 nmol/L [^33P]-S1P (manufactured by American Radiolabeled Chemicals, Inc.) diluted with Binding Buffer were added, and thereafter, the membrane fraction solution (50 μL) was added thereto, and a reacted was allowed to proceed at room temperature for 60 minutes. After the reaction, suction filtration was carried out by using a 96-well Unifilter, followed by washing with a washing buffer (50 mmol/L Tris pH 7.5, 0.5% BSA) ([…]), and then dried at 50 to 60° C. for 30 to 60 minutes. MicroScint (trade name) 20 (50 μL/well) was added thereto, and the plate was covered with TopSeal-A, and then a radioactivity was measured with TopCount (manufactured by PerkinElmer Co., Ltd.)
(§3) The compound concentration at which 50% of the specific binding of [^33P]-S1P to human S1P1 and human S1P5 was replaced (IC50 value) was used as an evaluation item. […]

human S1P5 = target: T2, human S1P5 (Homo sapiens, UniProt Q9H228); test: Inhibition of binding of [33P]-S1P to S1P5, CHO membrane fraction; settings: membrane fraction of CHO cells overexpressing human S1P5; room temperature 60 minutes; read-out: inhibitory activity (IC50 value) for binding of [33P]-S1P to S1P5
T2 construct: expressed in transfected cells; host or cells: membrane fraction of Chinese hamster ovary (CHO) cells
T2 sequence (Q9H228 whole entry): as above
Experimental: as §2, §3

Row | Structure (SMILES) | EC50 (human S1P1 (EDG-1) [1]) [nM] | EC50 (human S1P5 (EDG-8)) [nM] | other results
1 | COc1ccc2c(c1)C[C@H](C)C(CN1CC(F)(C(=O)O)C1)=C2 [Comparative Example, (S)-3-fluoro-1-[(6-methoxy-3-methyl-3,4-dihydronaphthalen-2-yl)methyl]azetidine-3-carboxylic acid, reference compound] | > 10000 | > 10000 | S1P1 receptor agonist activity (in words) (human S1P1 (EDG-1) [1]; calcium assay, CHO cells overexpressing human S1P1): did not have; S1P5 receptor agonist activity (in words) (human S1P5 (EDG-8); calcium assay, CHO cells overexpressing human S1P5): did not have
2 | C[C@H]1Cc2cc(OCCCC(F)(F)F)ccc2C=C1CN1CC[C@@H](C(=O)O)C1 [Example 15 (72), (3R)-1-[[(3S)-3-methyl-6-(4,4,4-trifluorobutoxy)-3,4-dihydronaphthalen-2-yl]methyl]pyrrolidine-3-carboxylic acid] | > 3000 | 22 | 
3 | [2H]C([2H])([2H])C([2H])([2H])C([2H])([2H])C([2H])([2H])Oc1ccc2c(c1)C[C@H](C)C(CN1CC(C(=O)O)C1)=C2 [Example 15 (70), 1-[[(3S)-3-methyl-6-(1,1,2,2,3,3,4,4,4-nonadeuteriobutoxy)-3,4-dihydronaphthalen-2-yl]methyl]azetidine-3-carboxylic acid] | > 3000 | 12 | 
4 | CCCCCCCCOc1ccc2c(c1)CCC(CN1CC(C(=O)O)C1)=C2C.Cl [Comparative Compound A, 1-{[1-methyl-6-(octyloxy)-3,4-dihydro-2-naphthalenyl]methyl}-3-azetidinecarboxylic acid hydrochloride, reference compound] | < 3 | 3 | balance of S1P5 receptor agonist activity against S1P1 receptor agonist activity (in words) (human S1P5 (EDG-8)): S1P1 receptor agonist activity was stronger than the S1P5 receptor agonist activity
5 | CCCCCOc1ccc2c(c1)C[C@H](C)C(CN1CC(C(=O)O)C1)=C2 [Example 15, 1-[((3S)-3-methyl-6-pentoxy-3,4-dihydronaphthalen-2-yl)methyl]azetidine-3-carboxylic acid] | > 3000 | 3 | 
6 | C[C@H]1Cc2cc(OCCCC(F)(F)F)ccc2C=C1CN1CC(C(=O)O)C1 [Example 15 (34), 1-[[(3S)-3-methyl-6-(4,4,4-trifluorobutoxy)-3,4-dihydronaphthalen-2-yl]methyl]azetidine-3-carboxylic acid] | > 3000 | 20 | 
7 | CC1=C(CNCCC(=O)O)CCc2cc(OCCCC3CCCCC3)ccc21 [Comparative Compound C, 3-({[6-(3-cyclohexylpropoxy)-1-methyl-3,4-dihydro-2-naphthalenyl]methyl}amino)propanoic acid hydrochloride] |  |  | IC50 (human S1P1 (EDG-1) [2]): 1 nM; IC50 (human S1P5): 8.5 nM
8 | C[C@H]1Cc2cc(OC/C=C/C(F)(F)F)ccc2C=C1CN1CC(F)(C(=O)O)C1 [Example 15 (82), 3-fluoro-1-[[(3S)-3-methyl-6-[(E)-4,4,4-trifluorobut-2-enoxy]-3,4-dihydronaphthalen-2-yl]methyl]azetidine-3-carboxylic acid] | > 30000 | 9 | 
9 | C[C@H]1Cc2cc(OCCC(F)(F)F)ccc2C=C1CN1CC(F)(C(=O)O)C1 [Example 15 (86), 3-fluoro-1-{[(3S)-3-methyl-6-(3,3,3-trifluoropropoxy)-3,4-dihydro-2-naphthalenyl]methyl}-3-azetidinecarboxylic acid] | > 30000 | 26 | 
10 | CC(N[C@H]1C[C@@H](C(=O)O)C1)C1=Cc2ccc(OCCCC(F)(F)F)cc2C[C@@H]1C (stereo partly drawn) [Example 47 (2), cis-3-({1-[(3S)-3-methyl-6-(4,4,4-trifluorobutoxy)-3,4-dihydro-2-naphthalenyl]ethyl}amino)cyclobutanecarboxylic acid] | > 30000 | 1100 | 
11 | CCCc1ccc(COc2ccc3c(c2)CCC(CN2CC(C(=O)O)C2)=C3C)c(OC)c1 [Comparative Compound B, 1-({6-[(2-methoxy-4-propylbenzyl)oxy]-1-methyl-3,4-dihydro-2-naphthalenyl}methyl)-3-azetidinecarboxylic acid, reference compound] | 0.2 | 2 | balance of S1P5 receptor agonist activity against S1P1 receptor agonist activity (in words) (human S1P5 (EDG-8)): S1P1 receptor agonist activity was stronger than the S1P5 receptor agonist activity
12 | C[C@H]1Cc2cc(OCCC(F)=C(F)F)ccc2C=C1CN1CC(F)(C(=O)O)C1 [Example 15 (52), 3-fluoro-1-[[(3S)-3-methyl-6-(3,4,4-trifluorobut-3-enoxy)-3,4-dihydronaphthalen-2-yl]methyl]azetidine-3-carboxylic acid] | > 3000 | 15 | 
13 | CCCOCc1ccc2c(c1)C[C@H](C)C(CN1CC(C(=O)O)C1)=C2 [Example 57 (2), 1-{[(3S)-3-methyl-6-(propoxymethyl)-3,4-dihydro-2-naphthalenyl]methyl}-3-azetidinecarboxylic acid] | > 30000 | 98 | 
